Earlier results, collected in publication PMC12498288 (Frontiers in Immunology, 2025).

Tested on: SARS-CoV-2
Parameters: method as in PMID 38319178
Settings: hospitalized COVID-19 patients with a similar CSS as in RESPIRE; cited from earlier work

In the case of `CC(C)C(=O)OC[C@H]1O[C@@H](n2ccc(NO)nc2=O)[C@H](O)[C@@H]1O` [molnupiravir], the viral load reduction is given as “no viral load reduction was observed”.
